# pIC50: −log10 of the molar value.
# Assay: In vitro kappa-opioid receptor agonist activity in isolated rabbit vas deferens assay
row,Compound,pIC50
1,O=C(Cc1ccc(Cl)c(Cl)c1)N1CCc2c(O)cccc2C1CN1CCCC1 (stereo not given),9.96
2,"O=C1CCN(CC2c3ccoc3CCN2C(=O)Cc2ccc(Cl)c(Cl)c2)C1 (stereo not given) [1-{5-[2-(3,4-Dichloro-phenyl)-acetyl]-4,5,6,7-tetrahydro-furo[3,2-c]pyridin-4-ylmethyl}-pyrrolidin-3-one]",8.22
3,"CN(C)CC1c2ccoc2CCN1C(=O)Cc1ccc(Cl)c(Cl)c1 (stereo not given) [2-(3,4-Dichloro-phenyl)-1-(4-dimethylaminomethyl-6,7-dihydro-4H-furo[3,2-c]pyridin-5-yl)-ethanone]",7.66
4,"O=C(Cc1ccc(Cl)c(Cl)c1)N1CCc2occc2C1CN1CCCC1 (stereo not given) [2-(3,4-Dichloro-phenyl)-1-(4-pyrrolidin-1-ylmethyl-6,7-dihydro-4H-furo[3,2-c]pyridin-5-yl)-ethanone]",7.82
5,"O=C(Cc1ccc(Cl)c(Cl)c1)N1CCc2occc2C1CN1CC=CCC1 (stereo not given) [2-(3,4-Dichloro-phenyl)-1-[4-(3,6-dihydro-2H-pyridin-1-ylmethyl)-6,7-dihydro-4H-furo[3,2-c]pyridin-5-yl]-ethanone]",8.85
6,"Cc1cc2c(o1)CCN(C(=O)Cc1ccc(Cl)c(Cl)c1)C2CN1CCC(O)C1 (stereo not given) [2-(3,4-Dichloro-phenyl)-1-[4-(3-hydroxy-pyrrolidin-1-ylmethyl)-2-methyl-6,7-dihydro-4H-furo[3,2-c]pyridin-5-yl]-ethanone]",9.41
7,"O=C(Cc1ccc(Cl)c(Cl)c1)N1CCc2occc2C1CN1CCC(O)C1 (stereo not given) [2-(3,4-Dichloro-phenyl)-1-[4-(3-hydroxy-pyrrolidin-1-ylmethyl)-6,7-dihydro-4H-furo[3,2-c]pyridin-5-yl]-ethanone]",8.57
8,"O=C(Cc1ccc(Cl)c(Cl)c1)N1CCc2c(O)cccc2C1CN1CCC(O)C1 (stereo not given) [2-(3,4-Dichloro-phenyl)-1-[5-hydroxy-1-(3-hydroxy-pyrrolidin-1-ylmethyl)-3,4-dihydro-1H-isoquinolin-2-yl]-ethanone]",8.42
9,"O=C(Cc1ccc(Cl)c(Cl)c1)N1CCc2occc2[C@@H]1CN1CC[C@H](O)C1 [2-(3,4-Dichloro-phenyl)-1-[(R)-4-((S)-3-hydroxy-pyrrolidin-1-ylmethyl)-6,7-dihydro-4H-furo[3,2-c]pyridin-5-yl]-ethanone]",8.96
10,"O=C(Cc1ccc(Cl)c(Cl)c1)N1CCc2occc2[C@H]1CN1CC[C@@H](O)C1 [(RS)-2-(3,4-Dichloro-phenyl)-1-[4-(3-hydroxy-pyrrolidin-1-ylmethyl)-6,7-dihydro-4H-furo[3,2-c]pyridin-5-yl]-ethanone(GR 91272)]",8.47

# Reference: BindingDB's records for doi:10.1021/jm00040a004 (Glaxo Group Research, 1994)
